# Data from patent US10266560B2, “Bile acid analogs as FXR/TGR5 agonists and methods of use thereof” (Enanta Pharmaceuticals, Inc., priority 2014, dated 2019).
# Where two headings read alike, the source gives them in different places.
# Target: Human FXR (NR1H4) (Homo sapiens (Human), UniProt Q96RI1)
# Assay: Human FXR (NR1H4) Assay (Gal4 promoter driven luciferase reporter transactivation in CHO cells)
# Type: cell-based
# Source text: Assays Human FXR (NR1H4) Assay
# Determination of a ligand mediated Gal4 promoter driven transactivation to quantify ligand binding mediated activation of FXR. FXR Reporter Assay kit purchased from Indigo Bioscience (Catalogue number: IB00601) to determine the potency and efficacy of compound developed by Enanta that can induce FXR activation. The principle application of this reporter assay system is to quantify functional activity of human FXR. The assay utilizes non-human mammalian cells, CHO (Chinese hamster ovary) cells engineered to express human NR1H4 protein (referred to as FXR). Reporter cells also incorporate the cDNA encoding beetle luciferase which catalyzes the substrates and yields photon emission. Luminescence intensity of the reaction is quantified using a plate-reading luminometer, Envision. Reporter Cells include the luciferase reporter gene functionally linked to an FXR responsive promoter. Thus, quantifying changes in luciferase expression in the treated reporter cells provides a sensitive surrogate measure of the changes in FXR activity. […] The assay is according to the manufacturer's instructions. In brief, the assay was performed in white, 96 well plates using final volume of 200 ul containing cells with different doses of compounds. Retrieve Reporter Cells from −80° C. storage. Perform a rapid thaw of the frozen cells by transferring a 10 ml volume of 37° C. cell recovery medium into the tube of frozen cells. Recap the tube of Reporter Cells and immediately place it in a 37° C. water bath for 5-10 minutes. Retrieve the tube of Reporter Cell Suspension from the water bath. Sanitize the outside surface of the tube with a 70% alcohol swab, and then transfer it into the cell culture hood. Dispense 100 μl of cell suspension into each well of the 96-well Assay Plate. Transfer the plate into 37° C. incubator, allowing the cells adherent to the bottom of the well. Dilute compounds in Dilution Plate (DP), and administrate to cells at Assay Plate (AP). DMSO content of the samples was kept at 0.2%. Cells were incubated for additional 22 hours before luciferase activities were measured. Thirty minutes before intending to quantify FXR activity, remove Detection Substrate and Detection Buffer from the refrigerator and place them in a low-light area so that they may equilibrate to room temperature. Remove the plate's lid and discard all media contents by ejecting it into an appropriate waste container. Gently tap the inverted plate onto a clean absorbent paper towel to remove residual droplets. Cells will remain tightly adhered to well bottoms. Add 100 μl of luciferase detection reagent to each well of the assay plate. Allow the assay plate to rest at room temperature for at least 5 minutes following the addition of LDR. Set the instrument (Envision) to perform a single 5 second “plate shake” prior to reading the first assay well. Read time may be 0.5 second (500 mSec) per well.
# [1] = FXR agonistic potency range; CHO reporter cells expressing human NR1H4, 22 hours incubation; read-out: EC50
# [2] = efficacy normalized to chenodeoxycholic acid (CDCA) set as 100%
# Sequence of Human FXR (NR1H4) (Q96RI1 whole entry, the tested form may be a part): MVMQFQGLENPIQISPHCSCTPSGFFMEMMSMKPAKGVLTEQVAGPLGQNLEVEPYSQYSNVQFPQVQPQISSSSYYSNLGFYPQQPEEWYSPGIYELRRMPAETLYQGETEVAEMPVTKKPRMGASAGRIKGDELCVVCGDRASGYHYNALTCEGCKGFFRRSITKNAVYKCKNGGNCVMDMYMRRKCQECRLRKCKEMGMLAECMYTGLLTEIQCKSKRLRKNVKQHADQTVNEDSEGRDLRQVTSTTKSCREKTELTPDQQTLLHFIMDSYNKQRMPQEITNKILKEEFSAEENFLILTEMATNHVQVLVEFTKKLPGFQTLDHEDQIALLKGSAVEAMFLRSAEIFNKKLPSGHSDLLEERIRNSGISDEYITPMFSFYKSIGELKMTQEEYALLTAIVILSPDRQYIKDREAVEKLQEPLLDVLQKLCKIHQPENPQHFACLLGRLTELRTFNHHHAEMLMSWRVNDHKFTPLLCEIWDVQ
Efficacy (%) [2] [%],Compound,"Emax (CHO, read-out: Efficacy (%)) [%]",EC50 [1] [nM],Emax (CHO; read-out: Efficacy (%)) [%],EC50 (read-out: EC50) [nM]
–,CC[C@@H]1C2C[C@H](O)CCC2(C)[C@H]2CCC3(C)C([C@H](C)CCC(=O)NS(=O)(=O)c4cccc(OC)c4)CC[C@H]3[C@@H]2[C@@H]1O (stereo partly shown) [Example 477],596,< 100,–,–
–,CC[C@H]1[C@@H](O)[C@@H]2[C@H](CC[C@]3(C)[C@@H]([C@H](C)CCCC(=O)NS(=O)(=O)C4(C)CC4)CC[C@@H]23)[C@@]2(C)CC[C@@H](O)C[C@@H]12 [Example 492],–,–,226,100 to 1000
–,CC[C@H]1[C@@H](O)[C@@H]2[C@H](CC[C@]3(C)[C@@H]([C@H](C)CCCC(=O)NS(=O)(=O)C4CC4)CC[C@@H]23)[C@@]2(C)CC[C@@H](O)C[C@@H]12 [Example 490],–,–,223,100 to 1000
–,CC[C@H]1[C@@H](O)[C@@H]2[C@H](CC[C@]3(C)[C@@H]([C@H](C)CCC(=O)NS(C)(=O)=O)CC[C@@H]23)[C@@]2(C)CC[C@@H](O)C[C@@H]12 [Example 1],–,–,254,100 to 1000
–,CC[C@@H]1C2C[C@H](O)CCC2(C)[C@H]2CCC3(C)C([C@H](C)CCC(=O)NS(=O)(=O)c4ccc(F)cc4)CC[C@H]3[C@@H]2[C@@H]1O (stereo partly shown) [Example 453],–,–,240,100 to 1000
–,CC[C@@H]1C2C[C@H](O)CCC2(C)[C@H]2CCC3(C)C([C@H](C)CCC(=O)NS(=O)(=O)c4nccs4)CC[C@H]3[C@@H]2[C@@H]1O (stereo partly shown) [Example 474],–,–,463,1000 to 10000
–,CC[C@@H]1C2C[C@H](O)CCC2(C)[C@H]2CCC3(C)C([C@H](C)CCC(=O)NS(=O)(=O)C4CCCCC4)CC[C@H]3[C@@H]2[C@@H]1O (stereo partly shown) [Example 468],480,< 100,–,–
349,CCC1C(O)C2C3CCC(C(C)CCC(=O)NS(N)(=O)=O)C3(C)CCC2C2(C)CCC(O)CC12 (stereo not shown) [Example 17],–,1000 to 10000,–,–
244,CCC1C(O)C2C3CCC(C(C)CCC(=O)NS(=O)(=O)C(F)(F)F)C3(C)CCC2C2(C)CCC(O)CC12 (stereo not shown) [Example 10],–,1000 to 10000,–,–
–,CC[C@@H]1C2C[C@H](O)CCC2(C)[C@H]2CCC3(C)C([C@H](C)CCC(=O)NS(=O)(=O)c4ccc([N+](=O)[O-])cc4)CC[C@H]3[C@@H]2[C@@H]1O (stereo partly shown) [Example 454],–,–,353,100 to 1000
329,CC[C@H]1[C@@H](O)[C@@H]2[C@H](CC[C@]3(C)[C@@H]([C@H](C)CCC(=O)NS(=O)(=O)c4ccccc4)CC[C@@H]23)[C@@]2(C)CC[C@@H](O)C[C@@H]12 [Example 18],–,< 100,–,–
–,CC[C@@H]1C2C[C@H](O)CCC2(C)[C@H]2CCC3(C)C([C@H](C)CCC(=O)NS(=O)(=O)c4ccc(C(F)(F)F)cc4)CC[C@H]3[C@@H]2[C@@H]1O (stereo partly shown) [Example 475],590,< 100,–,–
–,CC[C@@H]1C2C[C@H](O)CCC2(C)[C@H]2CCC3(C)C([C@H](C)CCC(=O)NS(=O)(=O)c4ccc(OC)c(OC)c4)CC[C@H]3[C@@H]2[C@@H]1O (stereo partly shown) [Example 478],–,–,589,100 to 1000
176,CCC1C(O)C2C3CCC(C(C)CCC(=O)NS(=O)(=O)c4ccccc4N)C3(C)CCC2C2(C)CCC(O)CC12 (stereo not shown) [Example 19],–,100 to 1000,–,–
289,CCC1C(O)C2C3CCC(C(C)CCC(=O)NS(=O)(=O)C(C)C)C3(C)CCC2C2(C)CCC(O)CC12 (stereo not shown) [Example 3],–,100 to 1000,–,–
–,CC[C@@H]1C2C[C@H](O)CCC2(C)[C@H]2CCC3(C)C([C@H](C)CCC(=O)NS(=O)(=O)c4ccccn4)CC[C@H]3[C@@H]2[C@@H]1O (stereo partly shown) [Example 462],–,–,297,100 to 1000
–,CC[C@@H]1C2C[C@H](O)CCC2(C)[C@H]2CCC3(C)C([C@H](C)CCC(=O)NS(=O)(=O)c4ccc(C(C)(C)C)cc4)CC[C@H]3[C@@H]2[C@@H]1O (stereo partly shown) [Example 484],349,< 100,–,–
–,CC[C@H]1[C@@H](O)[C@@H]2[C@H](CC[C@]3(C)[C@@H]([C@H](C)CCCC(=O)NS(=O)(=O)c4ccc(C(C)(C)C)cc4)CC[C@@H]23)[C@@]2(C)CC[C@@H](O)C[C@@H]12 [Example 491],182,< 100,–,–
–,CC[C@@H]1C2C[C@H](O)CCC2(C)[C@H]2CCC3(C)C([C@H](C)CCC(=O)NS(=O)(=O)c4ccc(C)c(F)c4)CC[C@H]3[C@@H]2[C@@H]1O (stereo partly shown) [Example 465],303,< 100,–,–
–,CC[C@H]1[C@@H](O)[C@@H]2[C@H](CC[C@]3(C)[C@@H]([C@H](C)C[C@H](C)C(=O)NS(=O)(=O)c4ccc(C(C)(C)C)cc4)CC[C@@H]23)[C@@]2(C)CC[C@@H](O)C[C@@H]12 [Example 488],–,–,132,100 to 1000
–,CC[C@@H]1C2C[C@H](O)CCC2(C)[C@H]2CCC3(C)C([C@H](C)CCC(=O)NS(=O)(=O)c4ccc5ccccc5c4)CC[C@H]3[C@@H]2[C@@H]1O (stereo partly shown) [Example 472],580,< 100,–,–
178,CCC1C(O)C2C3CCC(C(C)CCC(=O)NS(=O)(=O)Cc4ccccc4)C3(C)CCC2C2(C)CCC(O)CC12 (stereo not shown) [Example 7],–,1000 to 10000,–,–
–,CC[C@@H]1C2C[C@H](O)CCC2(C)[C@H]2CCC3(C)C([C@H](C)CCC(=O)NS(=O)(=O)c4ccc(OC)c(F)c4)CC[C@H]3[C@@H]2[C@@H]1O (stereo partly shown) [Example 476],593,< 100,–,–
